Assay results taken from ChEMBL document CHEMBL5291721, “A preclinical secondary pharmacology resource illuminates target-adverse drug reaction associations of marketed drugs” (Nat Commun, 2023).
Several values for one entry are separate records, joined by “and”; a condition that tells them apart may be missing. Identical values can stand only once.

Assays:
[1] = target: Beta-2 adrenergic receptor (Homo sapiens, UniProt P07550)
[2] = target: 5-hydroxytryptamine receptor 2B (Homo sapiens, UniProt P41595); assay type: functional, cell-based
Sequence of 5-hydroxytryptamine receptor 2B (P41595 whole entry): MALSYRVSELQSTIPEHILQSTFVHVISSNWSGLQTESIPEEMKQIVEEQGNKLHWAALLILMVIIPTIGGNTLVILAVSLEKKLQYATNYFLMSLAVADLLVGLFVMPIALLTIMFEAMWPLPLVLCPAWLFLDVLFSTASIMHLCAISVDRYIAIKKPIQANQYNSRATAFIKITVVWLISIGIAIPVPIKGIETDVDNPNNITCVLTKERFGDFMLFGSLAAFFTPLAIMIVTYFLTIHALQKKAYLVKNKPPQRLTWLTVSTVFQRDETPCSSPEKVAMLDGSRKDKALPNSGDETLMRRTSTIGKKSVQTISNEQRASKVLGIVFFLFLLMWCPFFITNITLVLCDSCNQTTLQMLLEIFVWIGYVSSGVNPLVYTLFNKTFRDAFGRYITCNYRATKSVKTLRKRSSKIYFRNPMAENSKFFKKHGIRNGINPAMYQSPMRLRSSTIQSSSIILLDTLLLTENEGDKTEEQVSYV

[3] = target: Gamma-aminobutyric acid receptor subunit alpha-1 (Rattus norvegicus, UniProt P62813)
Sequence of Gamma-aminobutyric acid receptor subunit alpha-1 (P62813 whole entry): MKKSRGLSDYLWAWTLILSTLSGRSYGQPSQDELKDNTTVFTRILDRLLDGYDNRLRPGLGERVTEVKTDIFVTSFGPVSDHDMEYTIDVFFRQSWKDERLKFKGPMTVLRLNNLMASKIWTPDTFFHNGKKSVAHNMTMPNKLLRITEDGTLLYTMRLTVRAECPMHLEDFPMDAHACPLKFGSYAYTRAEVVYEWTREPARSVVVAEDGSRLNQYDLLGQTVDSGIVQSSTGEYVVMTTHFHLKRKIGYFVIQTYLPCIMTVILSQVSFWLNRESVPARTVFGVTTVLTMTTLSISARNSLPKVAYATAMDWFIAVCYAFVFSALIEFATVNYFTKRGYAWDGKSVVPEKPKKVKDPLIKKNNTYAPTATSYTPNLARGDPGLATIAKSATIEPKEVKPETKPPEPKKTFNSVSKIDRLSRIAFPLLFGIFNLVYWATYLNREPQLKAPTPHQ

Histamine H3 receptor = Histamine H3 receptor (Homo sapiens, UniProt Q9Y5N1)
Sequence of Histamine H3 receptor (Q9Y5N1 whole entry): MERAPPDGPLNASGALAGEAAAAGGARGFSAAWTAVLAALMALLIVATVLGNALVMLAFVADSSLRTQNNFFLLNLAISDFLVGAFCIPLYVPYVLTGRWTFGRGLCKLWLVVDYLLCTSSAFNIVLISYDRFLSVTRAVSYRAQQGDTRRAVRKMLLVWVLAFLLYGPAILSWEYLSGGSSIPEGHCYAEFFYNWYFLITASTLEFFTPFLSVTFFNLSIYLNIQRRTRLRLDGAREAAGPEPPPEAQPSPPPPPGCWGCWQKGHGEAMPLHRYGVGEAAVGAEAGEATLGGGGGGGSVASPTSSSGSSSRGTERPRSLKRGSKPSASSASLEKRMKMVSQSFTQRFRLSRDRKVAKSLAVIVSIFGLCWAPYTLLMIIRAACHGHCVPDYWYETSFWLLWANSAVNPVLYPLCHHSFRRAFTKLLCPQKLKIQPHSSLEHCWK

Adenosine receptor A1 = target: T1, Adenosine receptor A1 (Homo sapiens, UniProt P30542)
T1 sequence (P30542 whole entry): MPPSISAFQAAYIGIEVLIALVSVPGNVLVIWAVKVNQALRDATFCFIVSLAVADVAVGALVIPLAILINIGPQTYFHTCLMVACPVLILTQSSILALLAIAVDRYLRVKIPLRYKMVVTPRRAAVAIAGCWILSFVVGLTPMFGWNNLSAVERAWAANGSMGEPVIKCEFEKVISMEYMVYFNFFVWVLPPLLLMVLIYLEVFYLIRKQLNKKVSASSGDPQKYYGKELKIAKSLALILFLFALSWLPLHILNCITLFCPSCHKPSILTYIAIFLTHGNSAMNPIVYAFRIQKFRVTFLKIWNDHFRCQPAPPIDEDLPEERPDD

[4] = target: T2, 5-hydroxytryptamine receptor 3A (Homo sapiens, UniProt P46098); assay type: functional
T2 sequence (P46098 whole entry): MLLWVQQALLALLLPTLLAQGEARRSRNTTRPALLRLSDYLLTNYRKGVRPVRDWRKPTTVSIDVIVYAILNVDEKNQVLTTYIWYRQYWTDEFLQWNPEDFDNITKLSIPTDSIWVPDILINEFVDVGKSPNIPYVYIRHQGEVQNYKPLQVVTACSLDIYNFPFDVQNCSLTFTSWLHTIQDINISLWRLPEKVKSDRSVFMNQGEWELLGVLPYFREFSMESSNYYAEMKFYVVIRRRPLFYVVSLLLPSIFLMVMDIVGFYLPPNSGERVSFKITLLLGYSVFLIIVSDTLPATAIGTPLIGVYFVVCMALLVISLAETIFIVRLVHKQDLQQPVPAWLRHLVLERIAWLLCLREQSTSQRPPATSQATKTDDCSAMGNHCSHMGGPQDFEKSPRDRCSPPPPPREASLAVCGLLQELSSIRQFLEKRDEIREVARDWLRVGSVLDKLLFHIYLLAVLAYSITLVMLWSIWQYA

[5] = target: T3, Alpha-1A adrenergic receptor (Homo sapiens, UniProt P35348); assay type: functional, cell-based
T3 sequence (P35348 whole entry): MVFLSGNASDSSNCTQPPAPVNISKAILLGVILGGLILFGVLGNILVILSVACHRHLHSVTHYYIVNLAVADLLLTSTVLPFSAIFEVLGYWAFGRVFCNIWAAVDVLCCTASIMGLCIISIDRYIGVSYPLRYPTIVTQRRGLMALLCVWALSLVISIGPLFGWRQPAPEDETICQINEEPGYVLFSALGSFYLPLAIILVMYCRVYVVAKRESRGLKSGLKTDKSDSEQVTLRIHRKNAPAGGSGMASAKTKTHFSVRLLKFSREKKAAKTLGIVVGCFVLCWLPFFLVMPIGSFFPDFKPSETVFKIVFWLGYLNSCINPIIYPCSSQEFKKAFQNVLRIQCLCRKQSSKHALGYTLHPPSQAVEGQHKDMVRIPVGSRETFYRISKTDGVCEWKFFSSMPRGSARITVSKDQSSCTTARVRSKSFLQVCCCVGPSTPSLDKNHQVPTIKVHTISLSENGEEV

[6] = target: T4, Prostaglandin G/H synthase 1 (Rattus norvegicus, UniProt Q63921); assay type: functional
T4 sequence (Q63921 whole entry): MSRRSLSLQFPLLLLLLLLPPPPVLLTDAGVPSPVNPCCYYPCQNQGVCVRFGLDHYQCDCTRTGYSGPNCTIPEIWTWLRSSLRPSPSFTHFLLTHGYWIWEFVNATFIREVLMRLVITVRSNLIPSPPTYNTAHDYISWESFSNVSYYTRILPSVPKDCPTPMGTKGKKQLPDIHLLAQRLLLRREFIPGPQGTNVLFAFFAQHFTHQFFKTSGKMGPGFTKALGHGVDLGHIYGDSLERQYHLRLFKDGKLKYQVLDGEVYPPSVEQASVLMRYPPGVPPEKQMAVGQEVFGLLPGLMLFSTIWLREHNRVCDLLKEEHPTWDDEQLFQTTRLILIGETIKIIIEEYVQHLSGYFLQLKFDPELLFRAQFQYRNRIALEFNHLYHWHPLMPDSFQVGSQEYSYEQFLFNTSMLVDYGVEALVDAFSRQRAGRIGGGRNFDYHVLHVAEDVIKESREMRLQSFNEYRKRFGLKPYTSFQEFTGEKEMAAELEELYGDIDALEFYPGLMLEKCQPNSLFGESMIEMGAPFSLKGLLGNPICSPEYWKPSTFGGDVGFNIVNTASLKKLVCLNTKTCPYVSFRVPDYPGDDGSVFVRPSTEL
Also: assay procedure not described here.

Sequence of Beta-2 adrenergic receptor (P07550 whole entry): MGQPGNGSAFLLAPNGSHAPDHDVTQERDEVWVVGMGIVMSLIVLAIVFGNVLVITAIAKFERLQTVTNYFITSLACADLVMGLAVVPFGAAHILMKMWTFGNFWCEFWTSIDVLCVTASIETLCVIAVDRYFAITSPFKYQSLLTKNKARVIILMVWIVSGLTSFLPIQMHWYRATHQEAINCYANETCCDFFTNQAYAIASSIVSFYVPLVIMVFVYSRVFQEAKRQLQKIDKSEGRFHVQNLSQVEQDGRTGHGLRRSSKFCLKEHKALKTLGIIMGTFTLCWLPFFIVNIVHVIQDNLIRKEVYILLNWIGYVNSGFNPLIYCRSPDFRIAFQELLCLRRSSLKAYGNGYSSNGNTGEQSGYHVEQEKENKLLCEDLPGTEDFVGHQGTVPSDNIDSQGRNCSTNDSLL

Compound | AC50 [1] [µM] | AC50 [2] | AC50 [3] [µM] | AC50 (Histamine H3 receptor) [µM] | AC50 (Adenosine receptor A1) [µM] | AC50 [4] [µM] | AC50 [5] [µM] | AC50 [6] [µM]
CC(C)N(CCC(C(N)=O)(c1ccccc1)c1ccccn1)C(C)C (stereo not drawn) [DISOPYRAMIDE] | > 30 | > 10 µM | > 10 | > 30 | > 30 | > 30 | > 30 | 13.6
CC(N)C12CC3CC(CC(C3)C1)C2 (stereo not drawn) [RIMANTADINE] | > 10 | > 10 µM | > 10 | – | > 10 | > 30 | – | > 10
C[C@]12C=CC(=O)N[C@@H]1CC[C@@H]1[C@@H]2CC[C@]2(C)[C@@H](C(=O)Nc3cc(C(F)(F)F)ccc3C(F)(F)F)CC[C@@H]12 [DUTASTERIDE] | > 10 | > 10 µM | > 10 | – | > 10 | > 30 | > 30 | > 10
CC(C)c1nc(N(C)S(C)(=O)=O)nc(-c2ccc(F)cc2)c1/C=C/[C@@H](O)C[C@@H](O)CC(=O)O [ROSUVASTATIN] | – | > 30 µM | > 30 | > 30 | > 30 | > 30 | > 30 | > 30
CC(S)C(=O)NCC(=O)O (stereo not drawn) [TIOPRONIN] | – | > 30 µM | – | > 30 | > 30 | > 30 | > 30 | 3.3
O=C1C(CC[S+]([O-])c2ccccc2)C(=O)N(c2ccccc2)N1c1ccccc1 (stereo not drawn) [SULFINPYRAZONE] | > 10 | > 30 µM | > 10 | – | > 10 | > 30 | > 30 | > 10
Nc1ccc(S(=O)(=O)Nc2nccs2)cc1 [SULFATHIAZOLE] | > 10 | > 10 µM | > 10 | > 10 | > 30 | > 30 | > 30 | > 30
CCN(CC)CCNC(=O)c1c(C)[nH]c(/C=C2\C(=O)Nc3ccc(F)cc32)c1C [SUNITINIB] | 8 | 5.2 µM | > 30 | 0.88 | 6.4 | – | – | > 30
CO[C@H]1/C=C/O[C@@]2(C)Oc3c(C)c(O)c4c(O)c(c(/C=N/N5CCN(C)CC5)c(O)c4c3C2=O)NC(=O)/C(C)=C\C=C\[C@H](C)[C@H](O)[C@@H](C)[C@@H](O)[C@@H](C)[C@H](OC(C)=O)[C@@H]1C [RIFAMPIN] | 29 | > 30 µM | > 30 | 25 | 18.8 | 5.2 | > 30 | > 30
O=C1CCc2cc(OCCCCc3nnnn3C3CCCCC3)ccc2N1 [CILOSTAZOL] | > 30 | > 30 µM | > 30 | > 30 | > 30 | > 30 | > 30 | > 30
C[C@H]1c2cccc(O)c2C(=O)C2=C(O)[C@]3(O)C(=O)C(C(N)=O)=C(O)[C@@H](N(C)C)[C@@H]3[C@@H](O)[C@@H]21 [DOXYCYCLINE] | > 10 | > 10 µM | > 10 | > 10 | 24.2 | > 30 | > 30 | > 30
COc1ccccc1OCCNCC(O)COc1cccc2[nH]c3ccccc3c12 (stereo not drawn) [CARVEDILOL] | – | 0.532 µM | > 10 | > 30 | > 30 | > 10 | 0.3 | > 30
CN1C[C@H](C(=O)N[C@]2(C)O[C@@]3(O)[C@@H]4CCCN4C(=O)[C@H](Cc4ccccc4)N3C2=O)C=C2c3cccc4[nH]cc(c34)C[C@H]21 [ERGOTAMINE] | – | – | – | > 30 | > 30 | > 30 | – | 26
C=CC[C@@H]1/C=C(\C)C[C@H](C)C[C@H](OC)[C@H]2O[C@@](O)(C(=O)C(=O)N3CCCC[C@H]3C(=O)O[C@H](/C(C)=C/[C@@H]3CC[C@@H](O)[C@H](OC)C3)[C@H](C)[C@@H](O)CC1=O)[C@H](C)C[C@@H]2OC [TACROLIMUS ANHYDROUS] | > 10 | 23 µM and 20 µM | > 30 | > 30 | > 30 | > 30 | > 30 | > 30
C[C@H](CCC(=O)O)[C@H]1CC[C@H]2[C@@H]3[C@@H](O)C[C@@H]4C[C@H](O)CC[C@]4(C)[C@H]3CC[C@]12C [URSODIOL] | – | > 30 µM | – | > 30 | > 30 | > 30 | > 30 | > 30
CN(C)CCC[C@@]1(c2ccc(F)cc2)OCc2cc(C#N)ccc21 [ESCITALOPRAM] | – | 22 µM | – | > 30 | > 30 | > 30 | – | > 30
C[C@@H](NCCCc1cccc(C(F)(F)F)c1)c1cccc2ccccc12 | – | – | > 30 | > 30 | > 30 | > 30 | > 30 | > 30
N[C@@H](CC(=O)N1CCn2c(nnc2C(F)(F)F)C1)Cc1cc(F)c(F)cc1F [SITAGLIPTIN] | > 10 | > 30 µM | > 10 | > 30 | > 30 | > 30 | > 30 | > 30
CC(C)(C)NCC(O)c1cc(O)cc(O)c1 (stereo not drawn) [TERBUTALINE] | – | – | – | > 30 | > 30 | – | – | > 30
CC(C(=O)O)c1ccc2c(c1)[nH]c1ccc(Cl)cc12 (stereo not drawn) [CARPROFEN] | > 10 | > 10 µM | > 10 | > 30 | > 30 | > 30 | – | > 30
C=C[C@H]1C[N@@]2CC[C@H]1C[C@@H]2[C@@H](O)c1ccnc2ccc(OC)cc12 [QUINIDINE] | > 10 | – | – | > 10 | > 30 | > 30 | – | > 30
CN(C)CCc1c[nH]c2ccc(Cn3cncn3)cc12 [RIZATRIPTAN] | > 10 | > 10 µM | > 30 | > 10 | > 30 | > 30 | > 30 | > 30
CCN1CCN(Cc2ccc(Nc3ncc(F)c(-c4cc(F)c5nc(C)n(C(C)C)c5c4)n3)nc2)CC1 [ABEMACICLIB] | – | 19 µM | – | 0.31 | > 30 | > 30 | > 30 | > 30
O=C1CN(/N=C/c2ccc(-c3ccc([N+](=O)[O-])cc3)o2)C(O)=N1 [DANTROLENE] | > 10 | > 10 µM | > 10 | – | 25 | > 30 | – | > 10
C[C@@H](Oc1cc(-c2cnn(C3CCNCC3)c2)cnc1N)c1c(Cl)ccc(F)c1Cl [CRIZOTINIB] | > 10 | 2.7 µM | – | – | > 30 | > 30 | – | 8.2
